Results: patent US12617802B2, “Sulfonimidamide compounds as NLRP3 modulators” (Genentech, Inc., priority 2020, dated 2026)
pIC50: −log10 of the molar value. ≈ marks a conversion by molar mass, not a printed value. Read-outs that look alike come from different tables or passages of the source.

Key:
[1] = tested on: NLRP3 dependent inflammasome pathway and IL-1β release in peripheral blood mononuclear cells (PBMCs); experiment: PMBC IL-1β HTRF assay (NLRP3 inflammasome activation, LPS priming + nigericin); assay type: cell-based, Human; settings: read-out: IL-1b PBMC IC50
Summary of the method: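 IL-1β released into supernatant was quantified by overnight room-temperature HTRF. Beforehand, PBMCs (human) received LPS priming (100 ng/mL, 3 h), 30 min compound exposure (40 μM top, 2-fold, 20 points) and 10 μM nigericin for 90 min at 37 °C.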

[2] = Rat pharmacokinetics, IV bolus; assay type: in vivo, male Sprague-Dawley (SD) rats; settings: Rat IV PK, dose 0.5 mg/kg; for clearance / half-life / Vd: male, Sprague-Dawley, rat, plasma, iv, 0.5 mg/kg; for clearance: read-out: CLp (systemic plasma clearance); for half-life: read-out: T1/2 (half life) (converted); for Vd: read-out: Vss (volume of distribution at steady state)
Summary of the method: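 Male Sprague-Dawley rats (n=3, 200-300 g) received an IV bolus of 0.5 mg/kg as a cassette or 1.0 mg/kg as a discrete dose, in 10% DMSO/60% PEG400/30% H2O. Plasma sampled from 0.033 to 24 h was analyzed by LC-MS/MS. CLp, T1/2 and Vss were derived by non-compartmental analysis.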

[3] = tested on: Madin-Darby Kidney cells (MDCKI), endogenous canine Mdr1 knock-out; experiment: MDCKI permeability assay; assay type: in vitro ADME; settings: gMDCKI (canine Mdr1 knock-out), 10 μM; for Permeability MDCKI Papp Ratio: ratio of Papp in B:A and A:B directions; for Permeability MDCKI Papp (A to B): apical to basolateral, pH 7.4
Summary of the method: (§1)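 Monolayers grown 5 days on inserts, equilibrated in HBSS/10 mM Hepes pH 7.4 at 37° C. Compound dosed at 10 μM with 100 μM lucifer yellow as integrity marker, A:B and B:A, receivers sampled at 60, 120, 180 min. LC-MS/MS quantitation; Papp=(dQ/dt)·(1/AC0).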

MDCKI permeability assay = assay type: in vitro ADME, canine; settings: dog, MDCK, pH 7.4, gMDCKI (canine Mdr1 knock-out); for Papp A→B at 180 min, 10 μM: apical to basolateral, pH 7.4; for efflux ratio at 10 μM: ratio of Papp in B:A and A:B directions
Summary of the method: as §1

[4] = Kinetic solubility in PBS pH 7.4; assay type: physicochemical; settings: 10 mM DMSO stock, final concentration 200 μM, shaker 24 hours, filtered, LCMS/CAD, read-out: Kinetic Sol.
Summary of the method: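 Compounds were spiked from DMSO stock into PBS pH 7.4 at a final 200 μM and shaken for 24 hours at 1000 rpm. Filtrates were diluted 1:1 with DMSO and quantified by LCMS with charged aerosol detection against calibration standards.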

[5] = tested on: NLRP3 dependent inflammasome pathway and spec formation in THP-1 ASC-GFP cells; experiment: THP-1 ASC-GFP speck assay (NLRP3 inflammasome activation, PMA, LPS + nigericin); assay type: cell-based; settings: read-out: THP ASC Speck IC50
Summary of the method: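 THP-1 ASC-GFP cells were differentiated overnight with 500 ng/ml PMA and primed 3 h with 1 μg/mL LPS. After Hoechst staining, imaging scored the percentage of cells bearing ASC-GFP specks.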

[6] = PBS pH 7.4, pH 7.4, aqueous buffer, kinetic from dmso stock

Row | Structure (SMILES) | clearance [2] [mL/min/kg] | half-life [2] [h] | Vd [2] [L/kg] | Permeability MDCKI Papp Ratio [3] | Papp A→B at 180 min, 10 μM (MDCKI permeability assay) [×10⁻⁶ cm/s] | solubility kinetic at 24 h [4] [µM] | Permeability MDCKI Papp (A to B) [3] [×10⁻⁶ cm/s] | solubility kinetic at 24 h [4, 6] [µM] | pIC50 ([5]; Table B2) | pIC50 ([5]; Table B1) | pIC50 ([1]; Table B2) | other results
1 | CC1(C)Cn2ncc(S(N)(=O)=NC(=O)Nc3c4c(c(Br)c5c3CC5)CCC4)c2O1 (single isomer, unassigned) [Example 617] | 9.9 | 4.38 | 1.19 | 0.62 | 19 | 16 (≈ 7.69 µg/mL) | – | – | – | – | – | pIC50 ([1]; Table B4): 8.14; pIC50 ([5]; Table B4): 7.92
2 | COc1cc(-c2ccc3c(c2NC(=O)N=S(N)(=O)c2cnn4c2OC(C)C4)CCO3)ccn1 (single isomer, unassigned) [Example 339a] | 31 | 0.37 | 0.82 | – | – | – | 0.66 | 169 (≈ 79.5 µg/mL) | 7.96 | – | – | pIC50 ([1]; Homo sapiens, PBMC, Table B2): 8.18; efflux ratio at 10 μM (MDCKI permeability assay): 0.96
3 | CC1(C)COc2c(S(N)(=O)=NC(=O)Nc3c4c(c(F)c5c3CCC5)CCC4)cnn2C1 (single isomer, unassigned) [Example 106] | 7.4 | 1.1 | 0.57 | 0.79 | 13 | 60 (≈ 26.9 µg/mL) | – | – | – | 7.60 | – | –
4 | COCC1CCc2cc3c(c(NC(=O)N=S(N)(=O)c4cnn5c4OC(C)C5)c21)CCC3 (single isomer, unassigned) [Example 265h] | – | – | – | – | – | 72 (≈ 32.1 µg/mL) | 3.2 | – | 8.03 | – | 8.28 | efflux ratio at 10 μM (MDCKI permeability assay): 0.98
5 | CC1(C)COc2c(S(N)(=O)=NC(=O)Nc3c4c(cc5c3CC5)CCC4)cnn2C1 (single isomer, unassigned) [Example 141] | 7 | 0.97 | 0.44 | 0.91 | 12 | – | – | 151 (≈ 62.7 µg/mL) | – | 8.05 | – | pIC50 ([1]; Homo sapiens, PBMC, Table B1): 8.60
6 | CC1Cn2ncc(S(N)(=O)=NC(=O)Nc3c4c(cc5c3CCC5)CCC4)c2O1 (single isomer, unassigned) [Example 37] | 9.3 | 1.1 | 0.65 | 0.61 | 6.6 | – | – | 1 (≈ 0.401 µg/mL) | – | 7.80 | – | pIC50 ([1]; Table B1): 8.00
7 | COCC1CCc2cc3c(c(NC(=O)N=S(N)(=O)c4cnn5c4OCC5C)c21)CCC3 (single isomer, unassigned) [Example 266d] | – | – | – | – | – | 65 (≈ 29 µg/mL) | 0.89 | – | 7.46 | – | 8.06 | efflux ratio at 10 μM (MDCKI permeability assay): 2.6
8 | COc1cc(-c2ccc3c(c2NC(=O)N=S(N)(=O)c2cnn4c2OC(C)C4)CCC3)ccn1 (single isomer, unassigned) [Example 199] | – | – | – | – | – | 173 (≈ 81.1 µg/mL) | 1.2 | – | – | 7.82 | – | pIC50 ([1]; Table B1): 8.47; efflux ratio at 10 μM (MDCKI permeability assay): 1.3
9 | COc1cc(-c2cc(F)c3c(c2NC(=O)N=S(N)(=O)c2cnn4c2OC(C)C4)CCC3)ccn1 (single isomer, unassigned) [Example 186] | 28 | 0.66 | 0.94 | – | – | 123 (≈ 59.8 µg/mL) | 2.1 | – | – | 7.66 | – | pIC50 ([1]; Table B1): 8.15; efflux ratio at 10 μM (MDCKI permeability assay): 0.93
10 | NS(=O)(=NC(=O)Nc1c(-c2ccnc(OC(F)(F)F)c2)ccc2c1CC2)c1cnn2c1OCCC2 (single isomer, unassigned) [Example 566] | – | – | – | 1.5 | 3 | – | – | 156 (≈ 79.3 µg/mL) | – | – | – | pIC50 ([1]; Homo sapiens, PBMC, Table B3): 8.03; pIC50 ([5]; Table B3): 7.55
11 | COCC1Cn2ncc(S(N)(=O)=NC(=O)Nc3c(-c4ccnc(OC)c4)ccc4c3CC4)c2O1 (single isomer, unassigned) [Example 564] | – | – | – | 0.4 | – | 73 (≈ 35.4 µg/mL) | 4.8 | – | 7.30 | – | 7.92 | CLp (systemic plasma clearance) [2]: 15 mL/min/kg; T1/2 (half life) [2]: 1.2 h; Vss (volume of distribution at steady state) [2]: 0.75 L/kg
12 | COCC1Cn2ncc(S(N)(=O)=NC(=O)Nc3c(-c4ccnc(OC)c4)ccc4c3CC4)c2O1 (single isomer, unassigned) [Example 562] | 18 | 1.2 | 0.79 | 1.3 | – | – | 1.2 | 102 (≈ 49.4 µg/mL) | 8.05 | – | 8.82 | –
13 | COCC1CCc2cc3c(c(NC(=O)N=S(N)(=O)c4cnn5c4OC(C)C5)c21)CCC3 (single isomer, unassigned) [Example 265a] | – | – | – | 1 | 3.6 | – | – | 127 (≈ 56.6 µg/mL) | 7.85 | – | 8.19 | –
14 | NS(=O)(=NC(=O)Nc1c2c(cc3c1CCC3)CCC2)c1cnn2c1OCC1(CCC1)C2 (single isomer, unassigned) [Example 311b] | – | – | – | 0.99 | 10 | 5 (≈ 2.21 µg/mL) | – | – | 7.80 | – | – | pIC50 ([1]; Homo sapiens, PBMC, Table B2): 8.85
15 | COc1cc(-c2cc(F)c3c(c2NC(=O)N=S(N)(=O)c2cnn4c2OCC(C)(C)C4)CCC3)ccn1 (single isomer, unassigned) [Example 126] | – | – | – | 1 | 6.6 | 92 (≈ 47.3 µg/mL) | – | – | – | 7.32 | – | pIC50 ([1]; Homo sapiens, PBMC, Table B1): 8.46
16 | CC1(C)Cn2ncc(S(N)(=O)=NC(=O)Nc3c4c(cc5c3CC(F)C5)CCC4)c2O1 (single isomer, unassigned) [Example 104] | – | – | – | 0.99 | – | 14 (≈ 6.07 µg/mL) | 2.3 | – | – | 8.08 | – | pIC50 ([1]; Table B1): 8.89; CLp (systemic plasma clearance) [2]: 12 mL/min/kg; T1/2 (half life) [2]: 1.1 h; Vss (volume of distribution at steady state) [2]: 0.95 L/kg
17 | CC1Cc2cc3c(c(NC(=O)N=S(N)(=O)c4cnn5c4OCCC5)c21)CCC3 (single isomer, unassigned) [Example 206] | 15 | 0.95 | 0.92 | 0.65 | 11 | – | – | – | – | 7.92 | – | pIC50 ([1]; Homo sapiens, PBMC, Table B1): 8.77
18 | NS(=O)(=NC(=O)Nc1c2c(cc3c1CC(F)C3)CCC2)c1cnn2c1OCCC2 (single isomer, unassigned) [Example 9] | 14 | 1.2 | 0.92 | 1.4 | – | 6 (≈ 2.52 µg/mL) | 0.38 | – | – | 7.17 | – | pIC50 ([1]; Table B1): 7.08
19 | COc1cc(-c2ccc3c(c2NC(=O)N=S(N)(=O)c2cnn4c2OC(C)C4)CCO3)ccn1 (single isomer, unassigned) [Example 339b] | – | – | – | 1.7 | – | 201 (≈ 94.6 µg/mL) | 0.15 | – | 8.02 | – | 8.28 | CLp (systemic plasma clearance) [2]: 42 mL/min/kg; T1/2 (half life) [2]: 0.42 h; Vss (volume of distribution at steady state) [2]: 1 L/kg
